Measurements reported in ChEMBL document CHEMBL1134223, “Design of non-peptide CCK2 and NK1 peptidomimetics using 1-(2-nitrophenyl)thiosemicarbazide as a novel common scaffold” (Bioorg Med Chem Lett, 2001).

Tests used:
B2 bradykinin receptor = target: T1, B2 bradykinin receptor (Rattus norvegicus, UniProt P25023); assay: In vitro binding affinity against Bradykinin receptor B2 in rat NG 108-15 neuroblastoma-glioma hybrid cell membranes using [3H]BK binding assay
T1 sequence (P25023 whole entry): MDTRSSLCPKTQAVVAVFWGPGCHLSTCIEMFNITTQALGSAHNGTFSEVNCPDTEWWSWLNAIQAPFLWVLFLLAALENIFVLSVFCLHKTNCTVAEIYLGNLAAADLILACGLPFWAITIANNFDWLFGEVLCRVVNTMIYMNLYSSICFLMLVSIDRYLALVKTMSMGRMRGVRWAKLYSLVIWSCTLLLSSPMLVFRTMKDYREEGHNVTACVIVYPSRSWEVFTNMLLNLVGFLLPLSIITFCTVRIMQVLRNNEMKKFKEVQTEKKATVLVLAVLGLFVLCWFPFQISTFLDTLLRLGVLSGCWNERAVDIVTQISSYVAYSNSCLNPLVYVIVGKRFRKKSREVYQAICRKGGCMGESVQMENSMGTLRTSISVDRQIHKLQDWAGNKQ

Substance-P receptor [1] = target: Substance-P receptor (Rattus norvegicus, UniProt P14600); assay: In vitro binding affinity against Tachykinin receptor 1 in rat whole forebrain membranes using [3H][Sar9Met(O2)]-SP binding assay; assay type: cell membranes, Membrane
[2] = target: T2, Gastrin/cholecystokinin type B receptor (Mus musculus, UniProt P56481); assay: In vitro binding affinity against Cholecystokinin type B receptor in mouse cerebral cortical membranes using [125I]Tyr(SO3H)27]-CCK-8 binding assay; assay type: cell membranes
T2 sequence (P56481 whole entry): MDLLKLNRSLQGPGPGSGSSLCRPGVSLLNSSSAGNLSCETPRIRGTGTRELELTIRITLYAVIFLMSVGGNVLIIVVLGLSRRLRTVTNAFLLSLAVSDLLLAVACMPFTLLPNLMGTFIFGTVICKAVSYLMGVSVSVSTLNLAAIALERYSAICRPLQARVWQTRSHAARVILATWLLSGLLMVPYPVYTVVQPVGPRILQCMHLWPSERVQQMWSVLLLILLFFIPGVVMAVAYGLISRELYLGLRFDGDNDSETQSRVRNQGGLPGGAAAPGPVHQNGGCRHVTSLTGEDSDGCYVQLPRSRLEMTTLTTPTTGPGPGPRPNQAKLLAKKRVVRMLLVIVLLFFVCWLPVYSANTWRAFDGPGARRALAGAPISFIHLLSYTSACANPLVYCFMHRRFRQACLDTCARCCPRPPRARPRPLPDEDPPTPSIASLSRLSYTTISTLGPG

Substance-P receptor [3] = target: Substance-P receptor (Cavia porcellus, UniProt P30547); assay: In vitro binding affinity against Tachykinin receptor 1 in guinea pig ileum using organ bath assay; assay type: tissue-based
Sequence of Substance-P receptor (Cavia porcellus, UniProt P30547) (P30547 whole entry): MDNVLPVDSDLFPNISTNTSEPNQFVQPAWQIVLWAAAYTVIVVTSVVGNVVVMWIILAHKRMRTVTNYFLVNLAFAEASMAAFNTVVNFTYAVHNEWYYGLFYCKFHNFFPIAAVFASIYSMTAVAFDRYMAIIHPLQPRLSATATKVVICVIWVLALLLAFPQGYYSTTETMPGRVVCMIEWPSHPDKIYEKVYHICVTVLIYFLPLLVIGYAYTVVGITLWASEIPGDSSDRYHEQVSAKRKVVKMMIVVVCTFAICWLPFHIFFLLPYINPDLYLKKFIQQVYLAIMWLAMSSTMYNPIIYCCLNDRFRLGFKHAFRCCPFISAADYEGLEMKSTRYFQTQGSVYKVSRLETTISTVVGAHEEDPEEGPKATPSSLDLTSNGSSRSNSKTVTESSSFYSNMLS

Sequence of Substance-P receptor (Rattus norvegicus, UniProt P14600) (P14600 whole entry): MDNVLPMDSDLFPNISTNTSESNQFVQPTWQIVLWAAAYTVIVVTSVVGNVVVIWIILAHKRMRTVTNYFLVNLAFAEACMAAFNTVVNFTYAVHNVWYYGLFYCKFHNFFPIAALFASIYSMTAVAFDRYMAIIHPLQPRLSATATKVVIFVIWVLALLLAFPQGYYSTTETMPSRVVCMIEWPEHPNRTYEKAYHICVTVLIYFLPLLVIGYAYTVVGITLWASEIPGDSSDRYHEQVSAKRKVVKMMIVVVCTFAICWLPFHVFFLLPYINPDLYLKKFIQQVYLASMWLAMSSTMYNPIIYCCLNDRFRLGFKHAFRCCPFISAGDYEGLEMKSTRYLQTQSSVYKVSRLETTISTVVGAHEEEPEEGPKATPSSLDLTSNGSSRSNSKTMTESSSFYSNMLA

| SMILES | IC50 (B2 bradykinin receptor) [µM] | IC50 (Substance-P receptor [1]) [µM] | IC50 [2] [µM] | IC50 (Substance-P receptor [3]) [µM] |
| --- | --- | --- | --- | --- |
| CSCCNS(=O)(=O)c1ccc(N/N=C(\S)N2CCC[C@@H]2C(=O)NCc2ccccc2)c([N+](=O)[O-])c1 | > 100 | > 100 |  |  |
| O=C(O)CCCNS(=O)(=O)c1ccc(N/N=C(/S)NCCc2c[nH]c3ccccc23)c([N+](=O)[O-])c1 | > 100 |  | 11 |  |
| O=C(O)c1ccc(NC(=S)NNc2ccc(S(=O)(=O)NCCc3c[nH]c4ccccc34)cc2[N+](=O)[O-])cc1 | > 100 |  | 24 |  |
| O=C(O)CNS(=O)(=O)c1ccc(NNC(=S)NCCc2c[nH]c3ccccc23)c([N+](=O)[O-])c1 | > 100 |  | 46 |  |
| O=C(O)c1ccccc1NS(=O)(=O)c1ccc(N/N=C(/S)NCCc2c[nH]c3ccccc23)c([N+](=O)[O-])c1 | > 100 |  | 4.5 |  |
| O=C(O)c1ccc(NS(=O)(=O)c2ccc(N/N=C(/S)NCCc3c[nH]c4ccccc34)c([N+](=O)[O-])c2)cc1 | > 100 |  | 10 |  |
| O=C(O)c1cccc(NS(=O)(=O)c2ccc(NNC(=S)NCCc3c[nH]c4ccccc34)c([N+](=O)[O-])c2)c1 | > 100 |  | 3.6 |  |
| CSCCNS(=O)(=O)c1ccc(N/N=C(\S)N2CCC[C@H]2C(=O)NCc2ccccc2)c([N+](=O)[O-])c1 | > 100 | > 100 |  |  |
| O=C(O)c1cccc(N(Cc2ccccc2)S(=O)(=O)c2ccc(NNC(=S)NCCc3c[nH]c4ccccc34)c([N+](=O)[O-])c2)c1 | > 100 |  | 4 |  |
| O=C(O)CN(Cc1ccccc1)S(=O)(=O)c1ccc(N/N=C(/S)NC(c2ccccc2)c2ccccc2)c([N+](=O)[O-])c1 | 0.41 |  | 1.9 |  |
| CSCCNS(=O)(=O)c1ccc(N/N=C(\S)N2CCC[C@H]2C(=O)NC(c2ccccc2)c2ccccc2)c([N+](=O)[O-])c1 | > 100 |  |  | 0.98 |
| O=C(O)CN(CCc1ccccc1)S(=O)(=O)c1ccc(N/N=C(/S)NCCc2c[nH]c3ccccc23)c([N+](=O)[O-])c1 | > 100 |  | 6 |  |
| O=C(O)CN(Cc1ccccc1)S(=O)(=O)c1ccc(NNC(=S)NCCc2c[nH]c3ccccc23)c([N+](=O)[O-])c1 | > 100 |  | 1.8 |  |
| O=C(NC(c1ccccc1)c1ccccc1)[C@H]1CCCN1/C(S)=N/Nc1ccccc1[N+](=O)[O-] | > 100 | > 100 |  | 2.31 |
| O=C(O)CCN(Cc1ccccc1)S(=O)(=O)c1ccc(NNC(=S)NCCc2c[nH]c3ccccc23)c([N+](=O)[O-])c1 | > 100 |  | 0.51 |  |
| O=C(O)CCNS(=O)(=O)c1ccc(N/N=C(/S)NCCc2c[nH]c3ccccc23)c([N+](=O)[O-])c1 | > 100 |  | 24 |  |
| CSCCNS(=O)(=O)c1ccc(N/N=C(\S)N2CCC[C@@H]2C(=O)NC(c2ccccc2)c2ccccc2)c([N+](=O)[O-])c1 | > 100 |  |  | 7.93 |
| O=C(O)CN(CCCc1ccccc1)S(=O)(=O)c1ccc(N/N=C(/S)NCCc2c[nH]c3ccccc23)c([N+](=O)[O-])c1 | > 100 |  | 6 |  |
| O=C(NC(c1ccccc1)c1ccccc1)[C@@H]1CCCN1/C(S)=N/Nc1ccccc1[N+](=O)[O-] | > 100 | > 100 |  | 1.67 |
| O=C(O)CCCN(Cc1ccccc1)S(=O)(=O)c1ccc(N/N=C(/S)NCCc2c[nH]c3ccccc23)c([N+](=O)[O-])c1 | > 100 |  | 2.43 |  |
| O=C(O)c1cccc(NC(=S)NNc2ccc(S(=O)(=O)NCCc3c[nH]c4ccccc34)cc2[N+](=O)[O-])c1 | > 100 |  | 31 |  |
| COc1ccccc1CN[C@H]1CCCN[C@H]1c1ccccc1 [CP-99994] |  |  |  | 0.0029 |
